Read-outs that look alike come from different tables or passages of the source. Blank lines part the entries; values can stand above or below the compound they belong to.
Experiments:
[1] = tested on: cornea of the right eye of a Wistar rat; conditions: cited from earlier work; for Observation in Treated Eye: Angiogenesis / Observation in Treated Eye: Corneal Keratoconus / Observation in Treated Eye: No Change: 10 μL topically once, 5 rats treated, one week
[2] = tested on: leukoplakia and hyperemia of the eye; assay: Topical treatment of leukoplakia and hyperemia of the eye in a patient; type: in vivo, human; conditions: topical cortisone drops, two months, right eye
Text: The leukoplakia was hypothesized to be the result of excessive sun exposure and chemicals. The patient was initially treated with topical cortisone drops, and the cortisone treatment continued for two months.
One month subsequent to stopping cortisone treatment, the patient underwent treatment with a 3% aqueous solution of melanin (w/v) that was topically applied in the form of eye drops. The aqueous solution was produced by mixing water and chemically synthesized melanin (synthetic melanin). […] Three to four drops (about 50 μL per drop) of the 3% aqueous melanin solution were administered for each application, and the solution was applied four times per day at approximately six hour intervals. […] The same dosing regimen was used over the entire course of the treatment.

hyphema in rabbits = conditions: rabbit, in vivo; cited from earlier work
eyes of healthy rats = conditions: rat, in vivo
Protocol: The effect of subconjunctival injection of melanin into the eyes of healthy rats was tested. Rats were put under general anesthesia by intraperitoneal injection of barbiturates. A total of five rats were used in the study. Then, 500 μL of a 3% aqueous melanin solution was administered to the right eye of each of the rats by subconjunctival injection. The left eye was left untreated.

Compound: Oc1ccccc1 [Phenol, phenol]
formation of new blood vessels in the cornea ([1]; all concentrations of phenol tested (0.1 M to 8.5 M), at least one rat in each group, one week after application): new blood vessels began to form in the cornea
changes associated with corneal ectasia, particularly corneal keratoconus ([1]; higher concentrations of phenol (e.g., 3.0 M, 5.6 M, and 8.5 M)): observed in some of the rats
Observation in Treated Eye: Angiogenesis ([1]; phenol 0.1M): 1 Number of Rats
Observation in Treated Eye: Corneal Keratoconus ([1]; phenol 0.1M): 0 Number of Rats
Observation in Treated Eye: No Change ([1]; phenol 0.1M): 4 Number of Rats
Observation in Treated Eye: Angiogenesis ([1]; phenol 0.5M): 1 Number of Rats
Observation in Treated Eye: Corneal Keratoconus ([1]; phenol 0.5M): 0 Number of Rats
Observation in Treated Eye: No Change ([1]; phenol 0.5M): 4 Number of Rats
Observation in Treated Eye: Angiogenesis ([1]; phenol 1.0M): 3 Number of Rats
Observation in Treated Eye: Corneal Keratoconus ([1]; phenol 1.0M): 0 Number of Rats
Observation in Treated Eye: No Change ([1]; phenol 1.0M): 2 Number of Rats
Observation in Treated Eye: Angiogenesis ([1]; phenol 3.0M): 4 Number of Rats
Observation in Treated Eye: Corneal Keratoconus ([1]; phenol 3.0M): 2 Number of Rats
Observation in Treated Eye: No Change ([1]; phenol 3.0M): 1 Number of Rats
Observation in Treated Eye: Angiogenesis ([1]; phenol 6.5M): 4 Number of Rats
Observation in Treated Eye: Corneal Keratoconus ([1]; phenol 6.5M): 2 Number of Rats
Observation in Treated Eye: No Change ([1]; phenol 6.5M): 1 Number of Rats
Observation in Treated Eye: Angiogenesis ([1]; phenol 8.5M): 3 Number of Rats
Observation in Treated Eye: Corneal Keratoconus ([1]; phenol 8.5M): 1 Number of Rats
Observation in Treated Eye: No Change ([1]; phenol 8.5M): 2 Number of Rats

Compound: C[C@]12CCC(=O)C=C1CC[C@@H]1[C@@H]2C(=O)C[C@@]2(C)[C@H]1CC[C@]2(O)C(=O)CO [cortisone]
improvement of leukoplakia and hyperemia [2]: no improvement

appearance of treated eyes immediately after injection (eyes of healthy rats): increase in size and some distortion
visible marks on the ocular tissue at the injection site (eyes of healthy rats): no visible marks
Compound: melanin
incidence of rebleeds (hyphema in rabbits): increase
visible signs of inflammation, irritation, or subconjunctival bleeding (eyes of healthy rats): nor were any visible signs of inflammation, irritation, or subconjunctival bleeding observed

Reference: US10220021B2, “Methods for treating and preventing ocular diseases, disorders, and conditions with melanin and melanin analogs, precursors, and derivatives” (priority 2014, dated 2019)
